Results published in ChEMBL document CHEMBL5137006, “Synthesis and Characterization of Transition-State Analogue Inhibitors against Human DNA Methyltransferase 1” (J Med Chem, 2022).
Active and inactive are the calls of the source. The rule behind the calls is not given here.

Legend:
[1] = target: T1, DNA (cytosine-5)-methyltransferase 1 (Homo sapiens, UniProt P26358); experiment: (§1) Inhibition of human C-terminal domain DNMT1 catalytic domain (351 to 1600 residues) expressed in Escherichia coli BL21-CodonPlus (DE3)-RIL cells assessed as inhibition of methylated dI-dC formation using 5 ug/ml poly dI-dC and [Me-3H]SAM as substrate incubated for 2 hrs by liquid scintillation counting analysis
T1 sequence (P26358 whole entry, the tested form may be a part): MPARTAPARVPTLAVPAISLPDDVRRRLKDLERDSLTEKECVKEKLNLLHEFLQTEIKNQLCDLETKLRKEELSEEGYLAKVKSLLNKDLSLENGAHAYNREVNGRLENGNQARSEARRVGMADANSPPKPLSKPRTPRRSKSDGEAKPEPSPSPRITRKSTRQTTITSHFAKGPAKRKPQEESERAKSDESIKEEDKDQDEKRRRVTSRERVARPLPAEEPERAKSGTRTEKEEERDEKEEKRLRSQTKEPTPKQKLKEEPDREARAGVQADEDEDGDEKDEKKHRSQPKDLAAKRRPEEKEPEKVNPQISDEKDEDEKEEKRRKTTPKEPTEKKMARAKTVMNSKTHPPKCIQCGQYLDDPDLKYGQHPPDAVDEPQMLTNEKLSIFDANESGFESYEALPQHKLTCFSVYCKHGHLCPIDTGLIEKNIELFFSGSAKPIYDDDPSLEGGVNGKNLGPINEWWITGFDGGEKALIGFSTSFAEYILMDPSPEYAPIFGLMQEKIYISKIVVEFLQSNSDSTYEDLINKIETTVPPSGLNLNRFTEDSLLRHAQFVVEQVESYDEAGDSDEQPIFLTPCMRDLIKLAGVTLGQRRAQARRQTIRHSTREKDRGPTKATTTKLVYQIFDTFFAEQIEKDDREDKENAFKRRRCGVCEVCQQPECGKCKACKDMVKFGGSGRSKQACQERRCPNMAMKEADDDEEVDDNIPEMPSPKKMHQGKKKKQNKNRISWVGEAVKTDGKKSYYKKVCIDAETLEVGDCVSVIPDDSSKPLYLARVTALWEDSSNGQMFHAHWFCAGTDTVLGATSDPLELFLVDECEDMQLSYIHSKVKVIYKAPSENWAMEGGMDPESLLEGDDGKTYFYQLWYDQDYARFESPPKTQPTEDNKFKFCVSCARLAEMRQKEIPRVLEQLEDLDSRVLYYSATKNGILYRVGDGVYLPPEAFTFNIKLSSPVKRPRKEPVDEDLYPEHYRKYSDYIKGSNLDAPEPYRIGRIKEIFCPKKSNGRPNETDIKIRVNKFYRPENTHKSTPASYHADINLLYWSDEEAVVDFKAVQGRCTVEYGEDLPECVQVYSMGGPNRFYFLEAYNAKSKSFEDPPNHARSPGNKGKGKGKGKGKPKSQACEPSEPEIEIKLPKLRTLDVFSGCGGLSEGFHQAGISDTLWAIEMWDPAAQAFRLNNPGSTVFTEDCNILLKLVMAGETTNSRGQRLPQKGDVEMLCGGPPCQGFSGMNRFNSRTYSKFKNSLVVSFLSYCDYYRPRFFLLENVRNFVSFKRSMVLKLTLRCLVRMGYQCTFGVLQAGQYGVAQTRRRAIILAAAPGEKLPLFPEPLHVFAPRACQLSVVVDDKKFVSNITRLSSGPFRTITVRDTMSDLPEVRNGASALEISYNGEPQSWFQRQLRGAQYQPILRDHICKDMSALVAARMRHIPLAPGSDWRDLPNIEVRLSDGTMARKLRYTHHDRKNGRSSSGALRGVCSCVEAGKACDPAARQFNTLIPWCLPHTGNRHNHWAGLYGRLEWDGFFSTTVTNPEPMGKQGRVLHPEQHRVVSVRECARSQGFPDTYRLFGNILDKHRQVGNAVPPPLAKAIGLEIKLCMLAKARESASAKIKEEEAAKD

[2] = target: T1, DNA (cytosine-5)-methyltransferase 1; experiment: as §1, with “using” for “using 5 ug/ml”, “and 12 uM” for “and”
[3] = target: T1, DNA (cytosine-5)-methyltransferase 1; experiment: as §1, with “using” for “using 5 ug/ml”, “and 1 uM” for “and”
[4] = target: T1, DNA (cytosine-5)-methyltransferase 1; experiment: Inhibition of human recombinant full-length DNMT1 expressed in Sf9 cells assessed as inhibition of methylated dI-dC formation using poly dI-dC and [Me-3H]SAM as substrate incubated for 2 hrs by liquid scintillation counting analysis
[5] = target: T1, DNA (cytosine-5)-methyltransferase 1; experiment: as §1, with “using 25” for “using 5”
[6] = target: T1, DNA (cytosine-5)-methyltransferase 1; experiment: Binding affinity to human C-terminal domain DNMT1 catalytic domain ([…] residues) expressed in Escherichia coli BL21-CodonPlus (DE3)-RIL cells by ultrafiltration binding assay
[7] = target: T1, DNA (cytosine-5)-methyltransferase 1; experiment: as §1, with “using 1” for “using 5”
[8] = target: T1, DNA (cytosine-5)-methyltransferase 1; experiment: as §1, with “using” for “using 5 ug/ml”, “and 6 uM” for “and”
[9] = target: T1, DNA (cytosine-5)-methyltransferase 1; experiment: as §1, with “using” for “using 5 ug/ml”, “and 8 uM” for “and”
[10] = target: T1, DNA (cytosine-5)-methyltransferase 1; experiment: Inhibition of DNMT1 in human HT-29 cells assessed as reduction of 5-methylcytosine in cellular DNA at 100 uM incubated for 96 hrs by nLC-MS analysis; format: cell-based

Structure (SMILES)	IC50 [4] [µM]	further results
Nc1nc(=O)n([C@H]2C[C@H](O)[C@@H](CO)O2)cc1CNCC(CC[C@H](N)C(=O)O)C[C@H]1O[C@@H](n2cnc3c(N)ncnc32)[C@H](O)[C@@H]1O (stereo not given in full)	1.2	IC50 [1]: 5.1 µM; IC50 [2]: 8.7 µM; IC50 [3]: 3.5 µM; IC50 [5]: 5.4 µM; Kd [6]: 7.3 µM; IC50 [7]: 4 µM; IC50 [8]: 6.1 µM; IC50 [9]: 6.7 µM
Nc1nc(=O)n([C@H]2C[C@H](O)[C@@H](CO)O2)cc1CSCCC[C@H]1O[C@@H](n2cnc3c(N)ncnc32)[C@H](O)[C@@H]1O	0.9	–
Nc1nc(=O)n([C@H]2C[C@H](O)[C@@H](CO)O2)cc1CCCSC[C@H]1O[C@@H](n2cnc3c(N)ncnc32)[C@H](O)[C@@H]1O	> 100	–
Nc1nc(=O)n([C@H]2C[C@H](O)[C@@H](CO)O2)cc1CCCN(CC[C@H](N)C(=O)O)C[C@H]1O[C@@H](n2cnc3c(N)ncnc32)[C@H](O)[C@@H]1O	2.9	–
Nc1nc(=O)n([C@H]2C[C@H](O)[C@@H](CO)O2)cc1CNC[C@H]1O[C@@H](n2cnc3c(N)ncnc32)[C@H](O)[C@@H]1O	0.4	–
Nc1ncn(C2C[C@H](O)[C@@H](CO)O2)c(=O)n1 (stereo not given in full)	–	inhibition [10]: Active
Nc1nc(=O)n([C@H]2C[C@H](O)[C@@H](CO)O2)cc1CN(CC[C@H](N)C(=O)O)C[C@H]1O[C@@H](n2cnc3c(N)ncnc32)[C@H](O)[C@@H]1O	8.5	–
Nc1nc(=O)n([C@H]2C[C@H](O)[C@@H](CO)O2)cc1SCCN(CC[C@H](N)C(=O)O)C[C@H]1O[C@@H](n2cnc3c(N)ncnc32)[C@H](O)[C@@H]1O	3.6	–
Nc1nc(=O)n([C@H]2C[C@H](O)[C@@H](CO)O2)cc1CCN(CC[C@H](N)C(=O)O)C[C@H]1O[C@@H](n2cnc3c(N)ncnc32)[C@H](O)[C@@H]1O	10.3	–
NC1=NC(=O)N([C@H]2C[C@H](O)[C@@H](CO)O2)CN1CCCCCN(CC[C@H](N)C(=O)O)C[C@H]1O[C@@H](n2cnc3c(N)ncnc32)[C@H](O)[C@@H]1O	19.6	–
Nc1nc(=O)n([C@H]2C[C@H](O)[C@@H](CO)O2)cc1CSCC[C@H](N)C(=O)O	7.2	–
Nc1nc(=O)n([C@H]2C[C@H](O)[C@@H](CO)O2)cc1CNCC[C@H](N)C(=O)O	17.2	–

More lines, main results first:

IC50 [4] [µM]	Structure (SMILES)	further results
1.1	Nc1nc(=O)n([C@H]2C[C@H](O)[C@@H](CO)O2)cc1CSCCCC[C@H](N)C(=O)O	–
10.3	Nc1nc(=O)n([C@H]2C[C@H](O)[C@@H](CO)O2)cc1CCCNC[C@H]1O[C@@H](n2cnc3c(N)ncnc32)[C@H](O)[C@@H]1O	–
> 100	Nc1nc(=O)n([C@H]2C[C@H](O)[C@@H](CO)O2)cc1CCSC[C@H]1O[C@@H](n2cnc3c(N)ncnc32)[C@H](O)[C@@H]1O	–
2.7	Nc1nc(=O)n([C@H]2C[C@H](O)[C@@H](CO)O2)cc1CNCCCC[C@H](N)C(=O)O	–
> 100	Nc1nc(=O)n([C@H]2C[C@H](O)[C@@H](CO)O2)cc1CSC[C@H]1O[C@@H](n2cnc3c(N)ncnc32)[C@H](O)[C@@H]1O	–
